Consider 13 compounds from patent US20230138729A1, “Coumarin Derivatives of Sugar Analogs and Uses Thereof” (Rubedo Life Sciences, Inc., priority 2021, published 2023).

The target in assay [1] is T1, Recombinant human FUCA1 (rhFUCA1) (Homo sapiens, UniProt P04066).
T1 sequence (P04066 32-466): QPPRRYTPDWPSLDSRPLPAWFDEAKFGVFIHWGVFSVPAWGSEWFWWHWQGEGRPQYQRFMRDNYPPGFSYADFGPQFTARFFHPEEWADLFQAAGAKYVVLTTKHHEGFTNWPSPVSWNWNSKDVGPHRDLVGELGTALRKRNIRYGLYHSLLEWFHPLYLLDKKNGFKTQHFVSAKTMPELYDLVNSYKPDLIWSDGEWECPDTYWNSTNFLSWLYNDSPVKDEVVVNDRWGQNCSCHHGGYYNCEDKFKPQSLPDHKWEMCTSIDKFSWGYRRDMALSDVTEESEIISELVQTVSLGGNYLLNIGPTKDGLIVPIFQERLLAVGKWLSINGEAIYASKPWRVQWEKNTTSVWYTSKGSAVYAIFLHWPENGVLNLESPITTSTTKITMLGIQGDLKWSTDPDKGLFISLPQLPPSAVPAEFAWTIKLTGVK
Nature of the assay: Enzymatic hydrolysis by recombinant human FUCA1 (fluorescence reaction velocity). The conditions noted are these: compound 500 uM; for Average reaction velocity relative to MU-Fuc (%): pH 4.4, 37° C., relative to positive control MU-Fuc; for rhFUCA1 substrate: pH 4.4 McIlvaine Buffer, 37° C. It is filed as biochemical. The method, then: (§1) Compounds were added to wells of a black-walled clear bottom 96 well plate at a concentration of […]. 4-methylumbelliferyl-alpha-L-fucopyranoside (referred to as MU-Fuc, CAS 54322-38-2) or 4-methylumbelliferyl-beta-D-galactopyranoside (referred to as MU-Gal, CAS 6160-78-7) were included as positive control compounds. Recombinant human FUCA1 (1-25 nM) or GLB1 (2-50 nM) in reaction buffer comprised of pH 4.4 McIlvaine Buffer, 2 mM dithiothreitol and 0.1% (v/v) Tween-20 was added to the wells. Enzyme-free controls were included to check for spontaneous compound hydrolysis. The plate was shaken and incubated at 37° C. in the plate reader. Every 5 minutes, fluorescence was read at the excitation wavelength of 330 nm and the emission wavelength of 450 nm for up to 3 hours. Linear regressions were calculated during the linear phase of the reaction to calculate the reaction velocity at each concentration of compound. Reaction velocities for compounds at 500 uM were compared as a percentage of the appropriate positive control compound.
Hydrolysis by the recombinant human FUCA1 enzyme (rhFUCA1) of modified fucose sugars conjugated to 4-methylumbelliferone or 7-amino-4-methylcoumarin was assessed by quantifying the generation of fluorescence over time as described in Example 10 and is compiled in Table 1, supra. Reaction rates of each compound were compared to the hydrolysis of the unmodified fucose conjugate MU-Fuc (14). Compound 43 was hydrolyzed by rhFUCA1 at a velocity about 35% of that of MU-Fuc. The reaction rate of 19 with rhFUCA1 was about 30% of that of MU-Fuc.

For assay [2], the system named is T47D breast cancer cells (sgNTC control). Description: Cellular hydrolysis of compounds in live T47D control cells (4-MU fluorescence). The format is cell-based. The conditions noted are these: compound 30 uM, naked sugar and acetylated version; for Average percent of product relative to 26 at 72 hours in T47D control cells: modified galactose conjugates. The method, then: (§2) T47D breast cancer cells were cultured in RPMI 1640 medium containing 10% heat inactivated fetal bovine serum. Cell lines were infected with lentiviral construct(s) containing S. pyogenes Cas9 and sgRNA(s) targeting the gene(s) of interest (sgNTC, non-targeting control; sgFUCA1_1, FUCA1 knockout). Infected cells were selected by antibiotic treatment. To assess the cellular hydrolysis of compounds, cells were seeded at 3-20,000 cells per well into 96-well plates and incubated at 37° C. with 5% CO2. The next day, compounds (30 uM) were added to the cells. Wells containing only compounds in media were included as background fluorescence controls. 4-methylumbelliferyl-alpha-L-fucopyranoside (referred to as MU-Fuc, CAS 54322-38-2) or 4-methylumbelliferyl-2,3,4,6-tetra-O-acetyl-beta-D-galactopyranoside (CAS 6160-79-8) were included as positive controls. A 4-methylumbelliferone (referred to as 4-MU, CAS 90-33-5) standard ladder ranging from 39 to 5000 pmoles was added to each cell line. Fluorescence was read at the excitation wavelength of 330 nm and the emission wavelength of 450 nm on the plate reader every 24 hours for 72 hours. The plate was returned to the 37° C. 5% CO2 incubator between readings. A linear regression was performed to determine the slope of the line relating fluorescence to pmoles of 4-MU standard at each time point. The average cell-free background fluorescence for each compound at each time point was subtracted from all compound sample fluorescence measurements. Compound sample fluorescence was converted to pmoles of 4-MU by dividing by the slope of the 4-MU linear regression. The amount of 4-MU present at 72 hours for each compound in each cell line was compared as a percentage of the appropriate positive control compound.
The hydrolysis of modified galactose sugars conjugated to 4-methylumbelliferone in live cells was assessed by incubating the compounds in media with T47D breast cancer cells for 3 days and quantifying the generation of fluorescence over time as described in Example 11 and is compiled in Table 3, supra. […]

Assay [3] concerns the target T2, Recombinant human GLB1 (rhGLB1) (Homo sapiens, UniProt P16278).
T2 sequence (P16278 29-677): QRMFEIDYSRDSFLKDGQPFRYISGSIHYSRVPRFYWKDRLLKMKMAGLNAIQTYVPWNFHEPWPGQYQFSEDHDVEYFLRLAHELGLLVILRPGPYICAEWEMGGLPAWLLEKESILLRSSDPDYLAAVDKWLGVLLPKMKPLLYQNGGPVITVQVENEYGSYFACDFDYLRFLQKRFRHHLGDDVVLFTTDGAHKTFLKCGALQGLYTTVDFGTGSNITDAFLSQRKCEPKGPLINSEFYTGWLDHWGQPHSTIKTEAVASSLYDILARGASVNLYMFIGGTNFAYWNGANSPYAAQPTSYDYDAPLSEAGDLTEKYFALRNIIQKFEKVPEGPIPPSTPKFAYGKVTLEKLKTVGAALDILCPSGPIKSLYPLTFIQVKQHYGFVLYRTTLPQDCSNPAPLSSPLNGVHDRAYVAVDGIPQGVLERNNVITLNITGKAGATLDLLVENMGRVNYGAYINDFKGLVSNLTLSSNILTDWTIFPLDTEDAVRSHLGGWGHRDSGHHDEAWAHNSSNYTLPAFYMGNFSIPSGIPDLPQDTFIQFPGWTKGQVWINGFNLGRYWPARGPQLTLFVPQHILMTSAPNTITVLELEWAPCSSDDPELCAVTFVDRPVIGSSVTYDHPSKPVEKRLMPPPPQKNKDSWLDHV
Nature of the assay: Enzymatic hydrolysis by recombinant human GLB1 (fluorescence reaction velocity). It is filed as biochemical. Particulars: compound 500 uM; for Average percent of MU-Gal reaction velocity: pH 4.4, 37° C., relative to positive control MU-Gal; for rhGLB1 substrate: pH 4.4 McIlvaine Buffer, 37° C. On the procedure:
as §1
Hydrolysis by the recombinant human GLB1 (rhGLB1) enzyme of modified galactose sugars conjugated to 4-methylumbelliferone was assessed by quantifying the generation of fluorescence over time as described in Example 10 and is compiled in Table 1, supra. Reaction rates of each compound were compared to the hydrolysis rate of the unmodified galactose conjugate MU-Gal. Of the modified galactose compounds tested, compound 42 was rapidly hydrolyzed, at a rate about 8% of that of MU-Gal. Compounds 33 and 6 were hydrolyzed with reaction velocities about 4% or 3% of that of MU-Gal, respectively. Compounds 35, 31, and 27 were hydrolyzed by rhGLB1, but slowly compared to MU-Gal with rates less than 2% of that of MU-Gal.

For assay [4], the system named is T47D FUCA1 knockout cells. Description: Cellular hydrolysis in T47D FUCA1 knockout cells versus T47D control cells. It is filed as cell-based. Particulars: compound 30 uM. The method, then: as §2, with “4-methylumbelliferyl-alpha-L-fucopyranoside (referred to as MU-Fuc, CAS 54322-38-2) or 4-methylumbelliferyl-2,3,4,6-tetra-O-acetyl-beta-D-galactopyranoside (CAS 6160-79-8) were included as positive controls. A 4-methylumbelliferone (referred to as 4-MU, CAS 90-33-5) standard ladder ranging from 39 to 5000 pmoles was added to each cell line.” left out, “The plate was returned to the 37° C.” left out, “The amount of 4-MU present at 72 hours for each compound in each cell line was compared as a percentage of the appropriate positive control compound.” left out

In the case of `Cc1cc(=O)oc2cc(O[C@@H]3O[C@@H](C)[C@@H](O)[C@@H](O)[C@@H]3O)ccc12` [Compound 14, 4-methyl-7-(((2S,3S,4R,5S,6S)-3,4,5-trihydroxy-6-methyltetrahydro-2H-pyran-2-yl)oxy)-2H-chromen-2-one, reference compound], in assay [1], the “Average reaction velocity relative to MU-Fuc (%)” value came out at 100% and the rhFUCA1 substrate result is “yes”. Besides, the “Average percent of product relative to MU-Fuc (14) at 72 hours by T47D control cells” value in assay [2] (modified fucose conjugates) is 100%. Besides, in assay [3], the “Average percent of MU-Gal reaction velocity” value came to 7.6% and the rhGLB1 substrate entry is recorded as “yes”. On to `Cc1cc(=O)oc2cc(O[C@H]3C[C@H](O)[C@H](O)[C@H](C)O3)ccc12` [Compound 19, (2S,3R,4S,6S)-2-methyl-6-((4-methyl-2-oxo-2H-chromen-7-yl)oxy)tetrahydro-2H-pyran-3,4-diyl diol], for which the rhFUCA1 substrate result in assay [1] is listed as “yes”.

As to `Cc1cc(=O)oc2cc(O[C@H]3C[C@@H](O)[C@@H](O)[C@@H](CO)O3)ccc12` [Compound 24], in assay [3], the “Average percent of MU-Gal reaction velocity” value is reported as 0%; the rhGLB1 substrate entry is “not hydrolyzed and no”. Regarding `Cc1cc(=O)oc2cc(O[C@@H]3O[C@H](CO)[C@H](O)[C@H](F)[C@H]3O)ccc12` [Compound 31], in assay [3], the rhGLB1 substrate entry is “yes”. Take `Cc1cc(=O)oc2cc(O[C@@H]3O[C@H](CO)C[C@H](O)[C@H]3O)ccc12` [Compound 33]: in assay [3], the rhGLB1 substrate entry is given as “yes”. As for `Cc1cc(=O)oc2cc(O[C@@H]3O[C@H](CO)[C@H](O)C[C@H]3O)ccc12` [Compound 35], the rhGLB1 substrate result in assay [3] is given as “yes”.

With `COc1ccc(C2O[C@H]3[C@H](O)[C@H](Oc4ccc5c(C)cc(=O)oc5c4)O[C@@H](C)[C@H]3O2)cc1` (stereo partly drawn) [Compound 43, 7-(((3aR,4S,6S,7S,7aS)-7-hydroxy-2-(4-methoxyphenyl)-4-methyltetrahydro-3aH-[1,3]dioxolo[4,5-c]pyran-6-yl)oxy)-4-methyl-2H-chromen-2-one], the rhFUCA1 substrate entry in assay [1] is “yes”. For the compound `CC(=O)O[C@H]1[C@H](OC(C)=O)[C@H](Oc2ccc3c(C)cc(=O)oc3c2)O[C@@H](C)[C@H]1OC(C)=O` [Compound 44], the “Average percent of product formed by each compound at 72 hours in T47D FUCA1 knockout cells relative to product formed in T47D control cells” value in assay [4] stood at 8%. In the case of `Cc1cc(=O)oc2cc(NC(=O)OCc3ccc(O[C@@H]4O[C@@H](C)[C@@H](O)[C@@H](O)[C@@H]4O)cc3)ccc12` [Compound 50, [4-[(2S,3S,4R,5S,6S)-3,4,5-trihydroxy-6-methyl-tetrahydropyran-2-yl]oxyphenyl]methyl N-(4-methyl-2-oxo-chromen-7-yl)carbamate], in assay [1], the “Average reaction velocity relative to MU-Fuc (%)” value is 16.7% and the rhFUCA1 substrate result is listed as “yes”. For the compound `Cc1cc(=O)oc2cc(NC(=O)OCc3ccc(NC(=O)O[C@@H]4O[C@@H](C)[C@@H](O)[C@@H](O)[C@@H]4O)cc3)ccc12` [Compound 59, [4-[[(2S,3S,4R,5S,6S)-3,4,5-trihydroxy-6-methyl-tetrahydropyran-2-yl]oxycarbonylamino]phenyl]methyl N-(4-methyl-2-oxo-chromen-7-yl)carbamate], in assay [1], the rhFUCA1 substrate entry was “yes”.

`Cc1cc(=O)oc2cc(O[C@@H]3O[C@H](CO)[C@H](O)[C@H](O)[C@H]3O)ccc12` [MU-Gal, 4-methylumbelliferyl-beta-D-galactopyranoside, reference compound]: in assay [3], the “Average percent of MU-Gal reaction velocity” value was found to be 100% and the rhGLB1 substrate entry was “yes”. Regarding “(2R,3S,4S,5R,6S)-2-(acetoxymethyl)-5-fluoro-6-((4-methyl-2-oxo-2H-chromen-7-yl)oxy)tetrahydro-2H-pyran-3,4-diyl diol [Compound 20]”, in assay [2], the “Average percent of product relative to 26 at 72 hours in T47D control cells” value is reported as 0%. Also, in assay [3], the “Average percent of MU-Gal reaction velocity” value was found to be 0%; the rhGLB1 substrate entry is “not hydrolyzed and no”.

“(2S,3R,4R,5S,6S)-5-fluoro-2-methyl-6((4-methyl-2-oxo-2H-chromen-7-yl)oxy)tetrahydro-2H-pyran-3,4-diyl diacetate [Compound 27]”: the “Average percent of product relative to 26 at 72 hours in T47D control cells” value in assay [2] is recorded as 13%. Further, in assay [3], the rhGLB1 substrate result is given as “yes”.
